Molecules are shown by their SMILES.

T1 sequence (Q9Y5N1 whole entry): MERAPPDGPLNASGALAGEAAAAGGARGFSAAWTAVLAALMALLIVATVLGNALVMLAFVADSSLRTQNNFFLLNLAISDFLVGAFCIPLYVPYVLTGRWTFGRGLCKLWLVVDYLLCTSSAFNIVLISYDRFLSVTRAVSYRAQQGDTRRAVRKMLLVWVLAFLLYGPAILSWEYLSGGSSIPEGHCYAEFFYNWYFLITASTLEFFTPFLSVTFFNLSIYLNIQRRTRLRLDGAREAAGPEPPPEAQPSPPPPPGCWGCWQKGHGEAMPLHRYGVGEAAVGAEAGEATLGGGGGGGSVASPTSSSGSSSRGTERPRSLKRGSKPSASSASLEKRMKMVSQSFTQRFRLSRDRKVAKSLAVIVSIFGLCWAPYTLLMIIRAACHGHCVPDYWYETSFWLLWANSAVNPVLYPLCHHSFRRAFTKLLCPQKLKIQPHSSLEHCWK

The experiment concerns the target T1, histamine H3 receptor (Homo sapiens, UniProt Q9Y5N1).
T1 construct: expressed in transfected cells; membranes
The experiment can be described thus: [3H]-N-methylhistamine binding. The settings on record: membranes from histamine H3 receptor-expressing SK-N-MC cells; 0.8 nM [3H]-N-methylhistamine; 45 minutes at 25° C. The procedure:
1(A) Transfection of Cells with Human Histamine Receptor
A 10 cm tissue culture dish with a confluent monolayer of SK-N-MC cells was split two days prior to transfection. Using sterile technique the media was removed and the cells were detached from the dish by the addition of trypsin. One fifth of the cells were then placed onto a new 10 cm dish. Cells were grown in a 37° C. incubator with 5% CO2 in Minimal Essential Media Eagle with 10% Fetal Bovine Serum. After two days cells were approximately 80% confluent. These were removed from the dish with trypsin and pelleted in a clinical centrifuge. […] One μg supercoiled H3 receptor cDNA was added to the cells and mixed. The voltage for the electroporation was set at 0.25 kV, the capacitance is set at 960 μF.
After electroporation the cells were diluted into 10 mL complete media and plated onto four 10 cm dishes. Due to the variability in the efficiency of electroporation, four different concentrations of cells were plated. The ratios used were: 1:20, 1:10, and 1:5, with the remainder of the cells being added to the fourth dish. The cells were allowed to recover for 24 hours before adding the selection media (complete media with 600 μg/ml G418). After 10 days dishes were analyzed for surviving colonies of cells. Dishes with well-isolated colonies were used. Cells from individual colonies were isolated and tested. SK-N-MC cells were used because they give efficient coupling for inhibition of adenylate cyclase. The clones that gave the most robust inhibition of adenylate cyclase in response to histamine were used for further study.
1(B) [3H]-N-methylhistamine Binding
Cell pellets from histamine H3 receptor-expressing SK-N-MC cells were homogenized in 20 mM TrisHCl/0.5 mM EDTA. Supernatants from a 800 g spin were collected, reccentrifuged at 30,000 g for 30 minutes. Pellets were rehomogenized in 50 mM Tris/5 mM EDTA (pH 7.4). Membranes were incubated with 0.8 nM [^3H]-N-methylhistamine plus/minus test compounds for 45 minutes at 25° C. and harvested by rapid filtration over GF/C glass fiber filters (pretreated with 0.3% polyethylenimine) followed by four washes with ice cold buffer. Filters were dried, added to 4 mL scintillation cocktail and then counted on a liquid scintillation counter. Non-specific binding was defined with 10 μM histamine.
The term Ki denotes the dissociation constant of the complex between target and ligand, obtained from inhibition or displacement. A higher Ki goes with weaker binding. Turning to `CS(=O)(=O)n1c(-c2ccc(OCCCN3CCCCC3)cc2)cc2ccccc21` [Example 1, 2-[4-[3-Piperidinopropoxy]phenyl)-1-(methylsulfonyl)-1H-indole], the Ki amounted to 7 nM.
The figure for `c1ccc2[nH]c(-c3ccc(OCCCN4CCCCC4)cc3)cc2c1` [Example 2, 2-[4-(3-Piperidinopropoxy]phenyl)-1H-indole] is 48 nM; for `CN1CCCC1CCOc1ccc(-c2cc3ccccc3n2S(C)(=O)=O)cc1` (centres unmarked) [Example 3, 2-[4-[2-[1-(methyl)-2-pyrrolidinyl]ethoxy]phenyl)-1-(methylsulfonyl)-1H-indole] it is 77 nM; for `CN1CCCC1CCOc1ccc(-c2cc3ccccc3[nH]2)cc1` (centres unmarked) [Example 4, 2-[4-[2-[1-(methyl)-2-pyrrolidinyl]ethoxy]phenyl)-1H-indole] it is 100 nM.
The figure for `CN1CCC(Oc2ccc(-c3cc4ccccc4n3S(C)(=O)=O)cc2)CC1` [Example 5, 2-[4-[1-(methyl)-4-piperidinyl]oxyphenyl]-1-(methylsulfonyl)-1H-indole] is 107 nM.
The figure for `CN1CCC(Oc2ccc(-c3cc4ccccc4[nH]3)cc2)CC1` [Example 6, 2-[4-[1-(methyl)-4-piperidinyl]oxyphenyl] 1H-indole] is 390 nM.
The molecule `CN(C)CCCOc1ccc(-c2cc3ccccc3n2S(C)(=O)=O)cc1` [Example 7, 2-[4-[3-Dimethylaminopropoxy]phenyl]-1-(methylsulfonyl)-1H-indole] showed a Ki of 120 nM.
The figure for `CN(C)CCCOc1ccc(-c2cc3ccccc3[nH]2)cc1` [Example 8, 2-[4-[3-Dimethylaminopropoxy]phenyl] 1H-indole] is 500 nM.
The figure for `CS(=O)(=O)n1c(-c2ccc(OCc3ccncc3)cc2)cc2ccccc21` [Example 9, 2-[4-[4-Pyridinyl]methoxyphenyl]-1-(methylsulfonyl)-1H-indole] is 5000 nM; for `CCN(CC)CCOc1ccc(-c2cc3ccccc3n2S(C)(=O)=O)cc1` [Example 10, 2-[4-[2-Diethylaminoethoxy]phenyl]-1-(methylsulfonyl)-1H-indole] it is 369 nM; for `CCN(CC)CCOc1ccc(-c2cc3ccccc3[nH]2)cc1` [Example 11, 2-[4-[2-Diethylaminoethoxy]phenyl]-1H-indole] it is 523 nM.
The figure for `CS(=O)(=O)n1c(-c2cccc(OCCCN3CCCCC3)c2)cc2ccccc21` [Example 15, 2-[3-[3-Piperidinopropoxy]phenyl)-1-(methylsulfonyl)-1H-indole] is 33 nM.
In the case of `CN1CCN(CCCOc2ccc(-c3cc4ccccc4[nH]3)cc2)CC1` [Example 16, 2-(4-(3-(4-Methylpiperazino)propoxy)phenyl)indole], the inhibition constant Ki turned out to be 2000 nM.
The figure for `CN1CCN(CCCOc2ccc(-c3cc4cc(Cl)ccc4n3S(C)(=O)=O)cc2)CC1` [Example 17] is 3000 nM.
